In ChEMBL document CHEMBL5108072, “Discovery of Chlorofluoroacetamide-Based Covalent Inhibitors for Severe Acute Respiratory Syndrome Coronavirus 2 3CL Protease” (J Med Chem, 2022):
Calls of active or inactive are those of the source. The rule behind the calls is not given here.

Experiments:
[1] = target: Replicase polyprotein 1ab (Severe acute respiratory syndrome coronavirus 2) (UniProt P0DTD1); assay: Irreversible inhibition of recombinant full length SARS-CoV-2 3CLpro expressed in Escherichia coli using Ac-Abu-Tle-Leu-Gln-MCA as fluorogenic substrate assessed as inhibition of substrate hydrolysis at upto 500 nM incubated for 60 mins by multimode plate reader analysis; settings: TDE = time-dependent effect
[2] = system: SARS-CoV-2; assay: microbe, parasite or virus in culture; settings: Severe acute respiratory syndrome coronavirus 2, delta TY11-927, HEK-293T
[3] = system: SARS-CoV-2; assay: microbe, parasite or virus in culture; settings: Severe acute respiratory syndrome coronavirus 2, HEK-293T
[4] = system: SARS-CoV-2; assay: microbe, parasite or virus in culture; settings: Severe acute respiratory syndrome coronavirus 2, alpha QK002, HEK-293T
[5] = system: SARS-CoV-2; assay: microbe, parasite or virus in culture; settings: Severe acute respiratory syndrome coronavirus 2, Vero C1008
[6] = system: SARS-CoV-2; assay: microbe, parasite or virus in culture; settings: Severe acute respiratory syndrome coronavirus 2, Vero C1008; remark: listed apart in the source
[7] = target: Replicase polyprotein 1ab (Severe acute respiratory syndrome coronavirus 2, UniProt P0DTD1); assay: Inhibition of recombinant full length SARS-CoV-2 3CLpro expressed in Escherichia coli using Ac-Abu-Tle-Leu-Gln-MCA as fluorogenic substrate preincubated for 30 mins followed by substrate addition and measured for 6 hrs by multimode plate reader analysis
[8] = target: Replicase polyprotein 1ab (Severe acute respiratory syndrome coronavirus 2) (UniProt P0DTD1); assay: Binding affinity to SARS-CoV-2 3CLpro spiked in human A-431 cells assessed as increase in fluorescence intensity at 0.1 uM incubated for 1 hr by gel electrophoresis based fluorescence analysis; format: cell-based
[9] = system: Middle East respiratory syndrome-related coronavirus; assay: microbe, parasite or virus in culture; settings: EMC2012, HEK-293T
[10] = cells; settings: Betacoronavirus 1, HEK-293T
[11] = system: SARS-CoV; assay: microbe, parasite or virus in culture; settings: Severe acute respiratory syndrome-related coronavirus, HEK-293T
[12] = Toxicity in fasted ICR/c mouse assessed as hypotension at 100 mg/kg, po; format: organism-based; settings: in vivo
[13] = Toxicity in fasted ICR/c mouse assessed as debilitation at 100 mg/kg, po; format: organism-based; settings: in vivo
[14] = target: Cathepsin B (Homo sapiens, UniProt P07858); assay: Inhibition of C-terminal His-tagged Human cathepsin B expressed in FreeStyle 293-F cells using Z-Leu-Arg-MCA peptide as fluorogenic substrate preincubated for 30 mins followed by substrate addition and measured after 1 hr by multimode plate reader analysis; format: cell-based
[15] = Drug concentration in fasted ICR/c mouse lungs at 100 mg/kg, po measured after 6 hrs by LC-MS/MS analysis; format: ADME, organism-based, Lung; settings: in vivo
[16] = Drug concentration in fasted ICR/c mouse lungs at 10 mg/kg, iv measured after 6 hrs by LC-MS/MS analysis; format: ADME, organism-based, Lung; settings: in vivo
[17] = target: Cathepsin S (Homo sapiens, UniProt P25774); assay: Inhibition of C-terminal His-tagged recombinant Human cathepsin S (17 to 331 residues) expressed in FreeStyle 293-F cells using Z-Leu-Arg-MCA peptide as fluorogenic substrate preincubated for 30 mins followed by substrate addition and measured after 1 hr by multimode plate reader analysis; format: cell-based
Sequence of Cathepsin S (P25774 whole entry, the tested form may be a part): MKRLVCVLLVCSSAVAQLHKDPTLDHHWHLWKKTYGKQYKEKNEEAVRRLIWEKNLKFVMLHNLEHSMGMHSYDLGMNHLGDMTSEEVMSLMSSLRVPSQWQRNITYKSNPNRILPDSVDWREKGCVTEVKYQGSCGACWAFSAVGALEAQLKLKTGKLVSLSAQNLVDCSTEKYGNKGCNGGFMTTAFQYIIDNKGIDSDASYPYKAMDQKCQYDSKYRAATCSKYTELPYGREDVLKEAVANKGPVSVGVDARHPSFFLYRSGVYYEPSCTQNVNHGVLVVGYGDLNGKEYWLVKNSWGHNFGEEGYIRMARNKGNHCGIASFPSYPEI

[18] = target: Procathepsin L (Homo sapiens, UniProt P07711); assay: Inhibition of C-terminal His-tagged recombinant Human cathepsin L (18 to 333 residues) expressed in FreeStyle 293-F cells using Z-Leu-Arg-MCA peptide as fluorogenic substrate preincubated for 30 mins followed by substrate addition and measured after 1 hr by multimode plate reader analysis; format: cell-based
Sequence of Procathepsin L (P07711 whole entry, the tested form may be a part): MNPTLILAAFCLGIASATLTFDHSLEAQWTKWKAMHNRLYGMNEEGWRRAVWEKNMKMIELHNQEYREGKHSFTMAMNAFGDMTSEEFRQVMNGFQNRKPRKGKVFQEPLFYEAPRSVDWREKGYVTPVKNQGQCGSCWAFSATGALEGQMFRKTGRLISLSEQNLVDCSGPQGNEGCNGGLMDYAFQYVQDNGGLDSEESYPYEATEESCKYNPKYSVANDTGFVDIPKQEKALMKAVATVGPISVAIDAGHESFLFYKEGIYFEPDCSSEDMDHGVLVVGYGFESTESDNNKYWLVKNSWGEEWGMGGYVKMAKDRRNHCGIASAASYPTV

[19] = Plasma protein binding in mouse assessed as unbound fraction at 1 uM incubated for 16 to 20 hrs by LC-MS/MS analysis; format: ADME, cell-free; settings: time 16-20 hrs
[20] = Bioavailability in fasted ICR/c mouse at 100 mg/kg, po or 10 mg/kg, iv by LC-MS/MS analysis; format: ADME, organism-based; settings: in vivo
[21] = GSH reactivity in potassium phosphate buffer at pH 7.4 assessed as half life at 1 mM; format: physicochemical; settings: potassium phosphate buffer with GSH

| SMILES | EC50 [2] | EC50 [3] | EC50 [4] | EC50 [5] | EC50 [6] | EC50 [9] | EC50 [10] | EC50 [11] | also measured |
| --- | --- | --- | --- | --- | --- | --- | --- | --- | --- |
| CC(C)C[C@H](NC(=O)c1cc2c(F)cccc2[nH]1)C(=O)NN(C[C@@H]1CCNC1=O)C(=O)[C@@H](F)Cl | 48.7 nM | 198 nM | 69 nM |  |  |  |  |  | inhibition [1]: Tde |
| COc1cccc2[nH]c(C(=O)N[C@@H](CC(C)C)C(=O)NN(C[C@H]3CCNC3=O)C(=O)[C@H](F)Cl)cc12 | 50 nM | 119 nM | 103 nM | 389 nM | > 50000 nM |  |  |  |  |
| CC(=O)N(C[C@@H]1CCNC1=O)NC(=O)[C@H](CC(C)C)NC(=O)c1cc2c(F)cccc2[nH]1 |  |  |  |  |  |  |  |  | IC50 [7]: 332 nM |
| C#CCOc1cccc2[nH]c(C(=O)N[C@@H](CC(C)C)C(=O)NN(C[C@@H]3CCNC3=O)C(=O)[C@H](F)Cl)cc12 |  |  |  |  |  |  |  |  | Activity [8]: Active |
| COc1cccc2[nH]c(C(=O)N[C@@H](CC(C)C)C(=O)N[C@@H](C[C@@H]3CCNC3=O)C(=O)CO)cc12 [PF-00835231] | 692 nM | 915 nM | 1600 nM | 509 nM | > 50000 nM | 700 nM | 929 nM | 3240 nM |  |
| O=c1nc(NO)ccn1[C@@H]1O[C@H](CO)[C@@H](O)[C@H]1O [N-HYDROXYCYTIDINE] | 351 nM | 446 nM | 1220 nM | 238 nM | 204 nM | 1320 nM | 1190 nM | 1560 nM |  |
| COc1cccc2[nH]c(C(=O)N[C@@H](CC(C)C)C(=O)NN(C[C@@H]3CCNC3=O)C(=O)[C@H](F)Cl)cc12 | 8.79 nM | 24.4 nM | 16.2 nM | 69.7 nM | 20800 nM | 5.01 nM | 3.18 nM | 64.4 nM | Activity [12]: Toxic; Activity [13]: Toxic; IC50 [7]: 9.5 nM |
| CC(C)C[C@H](NC(=O)c1cc2c(F)cccc2[nH]1)C(=O)NN(C[C@H]1CCNC1=O)C(=O)[C@H](F)Cl | 44.5 nM | 141 nM | 92.3 nM | 423 nM | > 50000 nM |  |  |  |  |
| CC(C)C[C@H](NC(=O)c1cc2c(F)cccc2[nH]1)C(=O)NN(C[C@@H]1CCNC1=O)C(=O)[C@H](F)Cl | 737 nM |  | 13.8 nM | 59 nM |  | 4.72 nM | 1.67 nM | 59.3 nM | inhibition [1]: Tde; IC50 [14]: > 50000 nM; Ct [15]: 78 nmol/mg; Ct [16]: 63 nmol/mg; IC50 [17]: > 50000 nM; IC50 [18]: > 50000 nM; Fu [19]: 0.15%; bioavailability [20]: 9%; half-life at 1000 µM [21]: 48.2 h |
